Source: patent US20180325930A1, “Use of Oligosaccharide Compounds for Activating Angiogenesis” (Urgo Recherche Innovation et Developpement, priority 2015, published 2018)

Tested on: chick embryo chorioallantoic membranes (CAM)
Test: chicken ex ovo chorioallantoic membrane (CAM) angiogenesis model
Format: in vivo
Excerpt: This consists of a vascularised membrane found in bird or reptile eggs. In mammals, this structure forms the placenta. The model for the study will be a chicken ex OVO (without the shell) CAM model.
Fertilised chicken eggs were used.
For the study, VEGF-A was used as the positive control.
Potassium sucrose octasulphate salt (KSOS) is presented in the form of a solution at different concentrations, buffered with PBS.
A PBS buffer solution was used as a negative control.
On receipt, the eggs are stored at 13° C. to stop the development thereof until the time of the study. The eggs are then placed in incubation in a hatcher at 37° C. to enable the development of the embryo.
At 3 days, the eggs are broken unto a weighing cup so as to remove the shell, thereby rendering the embryo and all the structures accessible for future treatment. The ex ovo embryos are then placed back in the hatcher where they will continue the in vitro development thereof.
The embryos will be treated in the vehicle (PBS only), VEGF or different concentration of KSOS.
The treatment area is delimited by a silicone ring 1 cm in diameter and 0.2 in thickness. The treatment volume is 25 μl. The treated embryos are placed back in the hatcher for 48 hours.
After 48 hours of incubation, 10% skimmed milk is injected between the CAM and the yolk to separate the 2 vascularisations and increase the contrast for an optimal photographic shot. A photo is taken of the treatment area with a NIKON AZ 1 OO, NIS-element capture software, with 0.5×4 magnification.
On the basis of these photos, a number of parameters were determined using the image analysis software: • a) the total tube length (sum of the lengths of each vessel in the image), • b) the number of segments (total number of vessels connected to a branch point), • c) the number of branch points (total number of junctions connected to a segment). • b and c are representative of the formation of new characteristic vessels of angiogenesis.

Molecule	angiogenesis activation (significance with respect to VEGF-A or 100 mg/mL KSOS) (30 mg/mL, 48 hours)	vascular network visible (30 mg/mL, 48 hours)	angiogenesis activation (significance with respect to VEGF-A or 100 mg/mL KSOS) (50 mg/mL, 48 hours)	vascular network visible (50 mg/mL, 48 hours)	3 parameters measured (total tube length, number of segments, number of branch points), image analysis vs PBS (100 mg/mL, 48 hours)	angiogenesis activation compared with positive control VEGF-A (100 mg/mL, 48 hours)	vascular network observed on photos (100 mg/mL, 48 hours)	CAM vascularisation at the treatment area (overall, according to the dose) (3-100 mg/mL, 48 hours)	vascular change with respect to the negative control (PBS only), photos (from 30 mg/mL, 48 hours)	concentration from which angiogenesis activation is considered significant (inferred from results at 50 and 100 mg/mL, 70 mg/mL not tested)	neovascularisation of the CAM (photos of treatment area) (VEGF 0.5 μg (20 μg/mL), 25 μl, 48 hours)	3 parameters measured (total tube length, number of segments, number of branch points), image analysis vs PBS (VEGF 0.5 μg (20 μg/mL), 48 hours)
O=S(=O)([O-])OCC1OC(OC2(COS(=O)(=O)[O-])OC(COS(=O)(=O)[O-])C(OS(=O)(=O)[O-])C2OS(=O)(=O)[O-])C(OS(=O)(=O)[O-])C(OS(=O)(=O)[O-])C1OS(=O)(=O)[O-].[K+].[K+].[K+].[K+].[K+].[K+].[K+].[K+] (stereo not drawn) [KSOS, potassium sucrose octasulphate salt]	not considered to be significant	poorly developed vascular network	not considered to be significant	poorly developed vascular network	significant increase	angiogenesis activation equivalent to that observed with VEGF-A	well-developed vascular network	increase in CAM vascularisation	slight vascular change	≥ 70 mg/mL		
VEGF [reference compound]											anarchic neovascularisation	significant increase
